In patent publication US20090238808A1, “Process for the identification of novel enzyme interacting compounds” (priority 2005, published 2009):

Legend:
Experiment in all cases: In-lysate competition binding with kinobeads, Jurkat lysate, iTRAQ MS, relative intensity of identified proteins (Table 22)
Conditions in all cases: DMSO control = 1.0
[1] = biological target: T1, proteins captured on kinobeads from Jurkat cell lysate (Homo sapiens, UniProt P07947)
T1 construct: endogenous in cells; host or cells: Jurkat clone E6-1 lysate
Procedure: (§1) This example illustrates competition binding in cell lysates (see particularly the third aspect of the invention). A test compound, Bisindolylmaleimide VIII (Bis VIII, a well known kinase inhibitor; Davies et al., 2000. Specificity and mechanism of action of some commonly used protein kinase inhibitors. Biochemical Journal 351 (Pt 1): 95-105) was added to a cell lysate thereby allowing the test compound to bind to the target proteins in the lysate. Then the lysate was contacted with the kinobeads affinity matrix to capture remaining free target proteins. The proteins bound to the kinobeads matrix were then eluted with detergent-containing buffer, separated on a SDS-polyacryamide gel and analyzed by immunodetection (Western blots) or mass spectrometry detection.
(§2) For the quantitative detection of proteins by mass spectrometry proteins were eluted from the affinity matrix and subsequently separated by SDS-Polyacrylamide gel elecrophoresis. Suitable gel areas were cut out and subjected to in-gel proteolytic digestion with trypsin.
(§3) Four tryptic digest samples (corresponding to three different Bis VIII concentrations in the lysate and one DMSO control) were labeled with ITRAQ reagents and the combined samples were analyzed in a single LC-MS/MS mass spectrometry analysis followed by peak quantification in the MS/MS spectrum (Ross et al., 2004. Multiplexed protein quantitation in Saccharomyces cerevisiae using amine-reactive isobaric tagging reagents. Mol. Cell. Proteomics 3(12): 1154-1169). […] Binding curves for individual kinases are shown (FIG. 5). The relative intensity 50 (RI50) values representing the affinity of kinase-compound pairs are similar to IC50 values reported by kinase enzyme assays (Davies et al., 2000. Specificity and mechanism of action of some commonly used protein kinase inhibitors. Biochemical Journal 351 (Pt 1): 95-105).
(§4) Aliqots of Jurkat lysate (10 mg protein) were incubated with different Bis VIII concentrations for one hour at 4° C. (0.025 μM, 0.074 μM, 0.22 μM, 0.67 μM, 2.0 μM and 6.0 μM final concentration of Bis VIII). To this end Bis VIII solutions were prepared in 100% DMSO as solvent that corresponded to 200 fold desired final Bis VIII concentration (Bis VIII from Alexis Biochemicals cat. number ALX 270-056). Five μl of these solutions were added to 1 ml of lysate resulting in the indicated final concentrations. For a control experiment 5 μl of DMSO without Bis VIII were used.
(§5) To each preincubated lysate sample 40 μl of kinobeads (see example 1) were added and incubated for one hour at 4° C. During the incubation the tubes were rotated on an end-over-end shaker (Roto Shake Genie, Scientific Industries Inc.). Beads were collected by centrifugation, transfered to Mobicol-columns (MoBiTech 10055) and washed with 10 ml 1×DP buffer containing 0.4% NP40 detergent, followed by a wash with 5 ml 1×DP buffer with 0.2% NP40. To elute the bound proteins, 100 μl 2×SDS sample buffer was added, the column was heated for 30 minutes at 50° C. and the eluate was transferred to a microfuge tube by centrifugation. Proteins were then separated by SDS-Polyacrylamide electrophoresis (SDS-PAGE). The composition and preparation of buffers is described in example 2.
(§6) The peptide extracts of samples treated with different concentrations of the test compound (0.074 μM, 0.22 μM and 0.67 μM Bis VIII) and the solvent control (0.5% DMSO) were treated with different isomers of the isobaric tagging reagent (iTRAQ Reagents Multiplex Kit, part number 4352135, Applied Biosystems, Foster City, Calif., USA). The iTRAQ reagents are a set of multiplexed, amine-specific, stable isotope reagents that can label all peptides in up to four different biological samples enabling simultaneous identification and quantitation of peptides. The iTRAQ reagents were used according to instructions provided by the manufacturer. […]

[2] = biological target: T2, proteins captured on kinobeads from Jurkat cell lysate (Homo sapiens, UniProt P51451)
T2 construct: endogenous in cells; host or cells: Jurkat clone E6-1 lysate
Procedure: as §1, §2, §3, §4, §5, §6

[3] = biological target: T3, proteins captured on kinobeads from Jurkat cell lysate (Homo sapiens, UniProt P28482)
T3 construct: endogenous in cells; host or cells: Jurkat clone E6-1 lysate
Procedure: as §1, §2, §3, §4, §5, §6

[4] = biological target: T4, proteins captured on kinobeads from Jurkat cell lysate (Homo sapiens, UniProt P24941)
T4 construct: endogenous in cells; host or cells: Jurkat clone E6-1 lysate
Procedure: as §1, §2, §3, §4, §5, §6

[5] = biological target: T5, proteins captured on kinobeads from Jurkat cell lysate (Homo sapiens, UniProt P41240)
T5 construct: endogenous in cells; host or cells: Jurkat clone E6-1 lysate
Procedure: as §1, §2, §3, §4, §5, §6

[6] = biological target: T6, proteins captured on kinobeads from Jurkat cell lysate (Homo sapiens, UniProt P06241)
T6 construct: endogenous in cells; host or cells: Jurkat clone E6-1 lysate
Procedure: as §1, §2, §3, §4, §5, §6

[7] = biological target: T7, proteins captured on kinobeads from Jurkat cell lysate (Homo sapiens, UniProt P48729)
T7 construct: endogenous in cells; host or cells: Jurkat clone E6-1 lysate
Procedure: as §1, §2, §3, §4, §5, §6

[8] = biological target: T8, proteins captured on kinobeads from Jurkat cell lysate (Homo sapiens, UniProt P16083)
T8 construct: endogenous in cells; host or cells: Jurkat clone E6-1 lysate
Procedure: as §1, §2, §3, §4, §5, §6

[9] = biological target: T9, proteins captured on kinobeads from Jurkat cell lysate (Homo sapiens, UniProt Q9HCP0)
T9 construct: endogenous in cells; host or cells: Jurkat clone E6-1 lysate
Procedure: as §1, §2, §3, §4, §5, §6

[10] = biological target: T10, proteins captured on kinobeads from Jurkat cell lysate (Homo sapiens, UniProt Q00535)
T10 construct: endogenous in cells; host or cells: Jurkat clone E6-1 lysate
Procedure: as §1, §2, §3, §4, §5, §6

[11] = biological target: T11, proteins captured on kinobeads from Jurkat cell lysate (Homo sapiens, UniProt Q96GD4)
T11 construct: endogenous in cells; host or cells: Jurkat clone E6-1 lysate
Procedure: as §1, §2, §3, §4, §5, §6

[12] = biological target: T12, proteins captured on kinobeads from Jurkat cell lysate (Homo sapiens, UniProt Q2M2I8)
T12 construct: endogenous in cells; host or cells: Jurkat clone E6-1 lysate
Procedure: as §1, §2, §3, §4, §5, §6

[13] = biological target: T13, proteins captured on kinobeads from Jurkat cell lysate (Homo sapiens, UniProt P30291)
T13 construct: endogenous in cells; host or cells: Jurkat clone E6-1 lysate
Procedure: as §1, §2, §3, §4, §5, §6

[14] = biological target: T14, proteins captured on kinobeads from Jurkat cell lysate (Homo sapiens, UniProt P15559)
T14 construct: endogenous in cells; host or cells: Jurkat clone E6-1 lysate
Procedure: as §1, §2, §3, §4, §5, §6

[15] = biological target: T15, proteins captured on kinobeads from Jurkat cell lysate (Homo sapiens, UniProt P12931)
T15 construct: endogenous in cells; host or cells: Jurkat clone E6-1 lysate
Procedure: as §1, §2, §3, §4, §5, §6

Cn1cc(C2=C(c3cn(CCCN)c4ccccc34)C(=O)NC2=O)c2ccccc21 [Bis VIII, Bisindolylmaleimide VIII]
Relative Intensity, YES (YES1) ([1]; 0.074 uM in lysate): 0.82
Relative Intensity, YES (YES1) ([1]; 0.67 uM in lysate): 0.87
Relative Intensity, BLK ([2]; 0.074 uM in lysate): 0.90
Relative Intensity, BLK ([2]; 0.67 uM in lysate): 0.83
Relative Intensity, Erk2 (MAPK1) ([3]; 0.074 uM in lysate): 0.89
Relative Intensity, Erk2 (MAPK1) ([3]; 0.67 uM in lysate): 0.98
Relative Intensity, CDK2 ([4]; 0.074 uM in lysate): 0.89
Relative Intensity, CDK2 ([4]; 0.67 uM in lysate): 0.65
Relative Intensity, CSK ([5]; 0.074 uM in lysate): 0.84
Relative Intensity, CSK ([5]; 0.67 uM in lysate): 0.89
Relative Intensity, FYN ([6]; 0.074 uM in lysate): 0.91
Relative Intensity, FYN ([6]; 0.67 uM in lysate): 0.93
Relative Intensity, CK1a (CSNK1A1) ([7]; 0.074 uM in lysate): 0.97
Relative Intensity, CK1a (CSNK1A1) ([7]; 0.67 uM in lysate): 1.02
Relative Intensity, NQO2 ([8]; 0.074 uM in lysate): 0.87
Relative Intensity, NQO2 ([8]; 0.67 uM in lysate): 0.78
Relative Intensity, CK1g1 (CSNK1G1) ([9]; 0.074 uM in lysate): 1.01
Relative Intensity, CK1g1 (CSNK1G1) ([9]; 0.67 uM in lysate): 0.96
Relative Intensity, CDK5 ([10]; 0.074 uM in lysate): 0.92
Relative Intensity, CDK5 ([10]; 0.67 uM in lysate): 0.95
Relative Intensity, AurB (AURKB) ([11]; 0.074 uM in lysate): 0.95
Relative Intensity, AurB (AURKB) ([11]; 0.67 uM in lysate): 0.97
Relative Intensity, AAK1 ([12]; 0.074 uM in lysate): 0.82
Relative Intensity, AAK1 ([12]; 0.67 uM in lysate): 0.75
Relative Intensity, Wee1 ([13]; 0.074 uM in lysate): 1.21
Relative Intensity, Wee1 ([13]; 0.67 uM in lysate): 1.14
Relative Intensity, NQO1 ([14]; 0.074 uM in lysate): 0.84
Relative Intensity, NQO1 ([14]; 0.67 uM in lysate): 0.87
Relative Intensity, SRC ([15]; 0.074 uM in lysate): 0.93
Relative Intensity, SRC ([15]; 0.67 uM in lysate): 0.94
